# Measurements: PMC11956013, “Structure–Activity Relationships and Evaluation of 2-(Heteroaryl-cycloalkyl)-1H-indoles as Tauopathy Positron Emission Tomography Radiotracers” (Journal of Medicinal Chemistry, 2025)
# Tests used:
# [1] = molecular target: Oxytocin (h) (Homo sapiens, UniProt P30559); conditions: compound concentration 1.0E-05 M
# [2] = molecular target: alpha1B (h) (Homo sapiens, UniProt P35368); conditions: 1.0E-05 M; alpha1B (h) (antagonist radioligand)
# [3] = tested on: NMDA; test: Eurofins panel: NMDA (antagonist radioligand); assay type: binding; conditions: compound concentration 1.0E-05 M
# [4] = molecular target: CYP2C19 (Homo sapiens, UniProt P33261); test: in vitro; conditions: human liver microsomes, probe omeprazole
# [5] = molecular target: beta2 (h) (Homo sapiens, UniProt P07550); test: Eurofins panel: beta2 (h) (antagonist radioligand); conditions: 1.0E-05 M
# [6] = molecular target: T1, human recombinant MAO-B (Homo sapiens, UniProt P27338); test: Eurofins IC50 determination at human recombinant MAO-B; assay type: binding
# T1 construct: purchased Eurofins (contract assay)
# T1 sequence (P27338 whole entry): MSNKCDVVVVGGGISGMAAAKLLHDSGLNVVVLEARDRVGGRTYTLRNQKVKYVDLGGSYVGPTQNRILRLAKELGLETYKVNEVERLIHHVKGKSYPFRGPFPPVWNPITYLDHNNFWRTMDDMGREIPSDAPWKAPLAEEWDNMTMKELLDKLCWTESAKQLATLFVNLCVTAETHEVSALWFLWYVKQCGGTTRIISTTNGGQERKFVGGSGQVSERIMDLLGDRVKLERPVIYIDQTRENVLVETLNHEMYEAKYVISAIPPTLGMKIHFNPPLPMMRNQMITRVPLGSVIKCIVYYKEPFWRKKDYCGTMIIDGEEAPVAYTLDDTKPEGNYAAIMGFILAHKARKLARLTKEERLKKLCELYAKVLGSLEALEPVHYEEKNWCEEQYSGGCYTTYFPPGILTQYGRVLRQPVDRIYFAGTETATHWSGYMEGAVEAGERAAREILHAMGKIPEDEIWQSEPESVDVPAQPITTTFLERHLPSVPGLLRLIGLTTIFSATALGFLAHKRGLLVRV
# [7] = tested on: kainate; test: kainate (agonist radioligand), Eurofins assay 65; conditions: Specific binding; 1.0E-05 M
# [8] = molecular target: 5-HT1B (h) (Homo sapiens, UniProt P28222); test: Eurofins panel: 5-HT1B (h) (antagonist radioligand); conditions: 1.0E-05 M
# [9] = molecular target: Y2 (h) (Homo sapiens, UniProt P49146); conditions: compound concentration 1.0E-05 M
# [10] = molecular target: BZDp (TSPO) (h) (Homo sapiens, UniProt P30536); test: Eurofins panel: BZDp (TSPO) (h) (antagonist radioligand); conditions: 1.0E-05 M; BZDp (TSPO) (h) (antagonist radioligand)
# Chain of BZDp (TSPO) (h) (P30536 whole entry): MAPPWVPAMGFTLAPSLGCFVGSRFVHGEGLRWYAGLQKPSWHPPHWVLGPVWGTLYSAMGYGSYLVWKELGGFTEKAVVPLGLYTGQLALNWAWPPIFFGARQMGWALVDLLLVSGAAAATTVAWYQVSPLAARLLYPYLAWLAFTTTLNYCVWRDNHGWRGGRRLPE
# [11] = molecular target: N neuronal alpha4beta2 (h) (Homo sapiens, UniProt P17787+P43681); conditions: compound concentration 1.0E-05 M
# [12] = molecular target: CGRP (h) (Homo sapiens, UniProt O60894+Q16602); test: biochemical
# [13] = molecular target: T2, alpha1A (h) (Homo sapiens, UniProt P35348); test: Eurofins panel: alpha1A (h) (antagonist radioligand); conditions: 1.0E-05 M; alpha1A (h) (antagonist radioligand)
# T2 sequence (P35348 1-466): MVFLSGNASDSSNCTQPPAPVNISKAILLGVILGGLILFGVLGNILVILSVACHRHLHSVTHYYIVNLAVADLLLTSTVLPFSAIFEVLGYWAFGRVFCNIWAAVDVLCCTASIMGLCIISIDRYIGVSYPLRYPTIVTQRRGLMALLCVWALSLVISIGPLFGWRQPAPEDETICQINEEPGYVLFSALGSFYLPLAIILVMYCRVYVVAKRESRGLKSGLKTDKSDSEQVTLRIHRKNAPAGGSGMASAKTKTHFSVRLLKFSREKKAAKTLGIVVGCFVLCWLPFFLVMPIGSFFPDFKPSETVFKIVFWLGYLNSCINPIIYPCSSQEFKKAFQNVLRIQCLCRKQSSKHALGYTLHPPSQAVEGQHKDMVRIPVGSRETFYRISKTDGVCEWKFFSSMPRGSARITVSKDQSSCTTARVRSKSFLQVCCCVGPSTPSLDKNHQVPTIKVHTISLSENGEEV
# [14] = molecular target: A3 (h) (Homo sapiens, UniProt P0DMS8); conditions: 1.0E-05 M; A3 (h) (agonist radioligand)
# [15] = molecular target: GABA transaminase (Rattus norvegicus, UniProt P50554); test: GABA transaminase, Eurofins assay 461; assay type: biochemical; conditions: Enzymatic activity; 1.0E-05 M
# [16] = molecular target: CB1 (h) (Homo sapiens, UniProt P21554); test: biochemical
# [17] = molecular target: Y1 (h) (Homo sapiens, UniProt P25929); conditions: compound concentration 1.0E-05 M
# [18] = molecular target: D3 (h) (Homo sapiens, UniProt P35462); test: D3 (h) (antagonist radioligand), Eurofins assay 48
# Chain of D3 (h) (P35462 whole entry): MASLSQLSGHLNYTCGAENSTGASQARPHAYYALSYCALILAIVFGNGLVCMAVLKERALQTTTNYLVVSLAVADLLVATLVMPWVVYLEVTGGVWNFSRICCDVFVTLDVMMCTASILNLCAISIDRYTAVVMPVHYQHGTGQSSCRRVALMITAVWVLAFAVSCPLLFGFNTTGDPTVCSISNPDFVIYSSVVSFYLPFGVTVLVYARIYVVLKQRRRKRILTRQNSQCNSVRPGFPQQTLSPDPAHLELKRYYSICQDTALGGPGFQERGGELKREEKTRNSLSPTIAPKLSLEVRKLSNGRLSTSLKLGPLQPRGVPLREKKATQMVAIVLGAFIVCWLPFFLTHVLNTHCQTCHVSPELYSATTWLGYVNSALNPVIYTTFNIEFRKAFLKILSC
# [19] = molecular target: H1 (h) (Homo sapiens, UniProt P35367); test: biochemical
# [20] = tested on: Ca2+ channel (L, verapamil site) (phenylalkylamine); test: Eurofins panel: Ca2+ channel (L, verapamil site) (phenylalkylamine) (antagonist radioligand); assay type: binding; conditions: 1.0E-05 M
# [21] = molecular target: T3, M1 (h) (Homo sapiens, UniProt P11229); test: biochemical; assay type: binding
# T3 construct: purchased Eurofins (CNS SafetyScreen panel, contract assay) assay 91
# [22] = molecular target: CYP2D6 (Homo sapiens, UniProt P10635); test: in vitro; conditions: human liver microsomes, probe dextromethorphan
# [23] = molecular target: mGluR5 (h) (Homo sapiens, UniProt P41594); test: Eurofins panel: mGluR5 (h) (agonist radioligand); conditions: 1.0E-05 M; mGluR5 (h) (agonist radioligand)
# Chain of mGluR5 (h) (P41594 21-1212): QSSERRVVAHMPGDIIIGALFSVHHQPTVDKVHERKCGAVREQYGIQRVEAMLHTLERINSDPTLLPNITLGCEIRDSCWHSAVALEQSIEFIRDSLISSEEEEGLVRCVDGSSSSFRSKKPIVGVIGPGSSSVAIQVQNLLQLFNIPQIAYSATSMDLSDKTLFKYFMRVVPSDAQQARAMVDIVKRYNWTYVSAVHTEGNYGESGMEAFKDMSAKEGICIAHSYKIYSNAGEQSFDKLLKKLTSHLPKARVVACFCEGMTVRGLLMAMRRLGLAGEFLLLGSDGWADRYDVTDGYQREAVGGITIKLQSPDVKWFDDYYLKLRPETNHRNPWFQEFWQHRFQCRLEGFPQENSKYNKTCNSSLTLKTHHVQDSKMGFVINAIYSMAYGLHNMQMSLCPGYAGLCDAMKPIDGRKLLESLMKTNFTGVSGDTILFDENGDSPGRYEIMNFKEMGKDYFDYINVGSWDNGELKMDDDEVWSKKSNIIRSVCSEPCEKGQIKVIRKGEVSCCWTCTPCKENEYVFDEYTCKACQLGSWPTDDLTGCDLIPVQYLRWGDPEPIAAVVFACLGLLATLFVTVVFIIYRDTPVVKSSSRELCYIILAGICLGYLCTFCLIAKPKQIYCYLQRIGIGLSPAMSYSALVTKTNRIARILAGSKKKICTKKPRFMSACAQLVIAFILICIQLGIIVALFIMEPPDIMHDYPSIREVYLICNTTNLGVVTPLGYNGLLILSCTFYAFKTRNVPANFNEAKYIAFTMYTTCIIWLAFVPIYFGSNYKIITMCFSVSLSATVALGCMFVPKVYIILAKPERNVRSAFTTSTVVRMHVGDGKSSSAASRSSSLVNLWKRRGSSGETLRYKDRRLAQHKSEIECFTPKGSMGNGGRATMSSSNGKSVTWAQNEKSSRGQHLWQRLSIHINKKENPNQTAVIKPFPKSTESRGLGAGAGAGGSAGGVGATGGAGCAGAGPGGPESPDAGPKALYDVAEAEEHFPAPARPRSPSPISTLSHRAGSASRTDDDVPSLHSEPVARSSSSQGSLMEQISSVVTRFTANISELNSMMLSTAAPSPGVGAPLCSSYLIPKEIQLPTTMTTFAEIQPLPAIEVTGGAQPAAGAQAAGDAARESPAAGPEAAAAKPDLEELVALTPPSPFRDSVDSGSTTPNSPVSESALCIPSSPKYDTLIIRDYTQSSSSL
# [24] = molecular target: CYP1A2 (Homo sapiens, UniProt P05177); test: in vitro; conditions: human liver microsomes, probe tacrine
# [25] = molecular target: alpha2A (h) (Homo sapiens, UniProt P08913); conditions: 1.0E-05 M; alpha2A (h) (antagonist radioligand)
# [26] = molecular target: T4, PDE4D2 (h) (Homo sapiens, UniProt Q08499); test: Eurofins panel: PDE4D2 (h); assay type: biochemical; conditions: compound concentration 1.0E-05 M
# T4 construct: purchased Eurofins (CNS SafetyScreen panel, contract assay)
# T4 sequence (Q08499 303-809 limits assumed): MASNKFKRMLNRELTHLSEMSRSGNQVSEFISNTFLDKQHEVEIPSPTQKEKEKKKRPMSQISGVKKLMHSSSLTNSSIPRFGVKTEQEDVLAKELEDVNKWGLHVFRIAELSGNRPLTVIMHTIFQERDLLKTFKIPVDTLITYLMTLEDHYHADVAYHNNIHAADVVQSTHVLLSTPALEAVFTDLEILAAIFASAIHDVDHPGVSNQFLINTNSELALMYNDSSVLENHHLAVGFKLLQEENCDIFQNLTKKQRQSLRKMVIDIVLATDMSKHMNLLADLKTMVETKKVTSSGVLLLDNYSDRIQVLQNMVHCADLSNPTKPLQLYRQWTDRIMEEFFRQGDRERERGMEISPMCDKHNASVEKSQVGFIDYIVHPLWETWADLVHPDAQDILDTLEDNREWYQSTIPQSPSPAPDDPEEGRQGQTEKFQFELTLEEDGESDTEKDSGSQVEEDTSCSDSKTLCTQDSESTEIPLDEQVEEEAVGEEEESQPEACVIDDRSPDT
# [27] = molecular target: CCK1 (CCKA) (h) (Homo sapiens, UniProt P32238); test: biochemical
# [28] = molecular target: EGFR kinase (h) (Homo sapiens, UniProt P00533); conditions: Enzymatic activity; 1.0E-05 M
# Chain of EGFR kinase (h) (P00533 25-1210): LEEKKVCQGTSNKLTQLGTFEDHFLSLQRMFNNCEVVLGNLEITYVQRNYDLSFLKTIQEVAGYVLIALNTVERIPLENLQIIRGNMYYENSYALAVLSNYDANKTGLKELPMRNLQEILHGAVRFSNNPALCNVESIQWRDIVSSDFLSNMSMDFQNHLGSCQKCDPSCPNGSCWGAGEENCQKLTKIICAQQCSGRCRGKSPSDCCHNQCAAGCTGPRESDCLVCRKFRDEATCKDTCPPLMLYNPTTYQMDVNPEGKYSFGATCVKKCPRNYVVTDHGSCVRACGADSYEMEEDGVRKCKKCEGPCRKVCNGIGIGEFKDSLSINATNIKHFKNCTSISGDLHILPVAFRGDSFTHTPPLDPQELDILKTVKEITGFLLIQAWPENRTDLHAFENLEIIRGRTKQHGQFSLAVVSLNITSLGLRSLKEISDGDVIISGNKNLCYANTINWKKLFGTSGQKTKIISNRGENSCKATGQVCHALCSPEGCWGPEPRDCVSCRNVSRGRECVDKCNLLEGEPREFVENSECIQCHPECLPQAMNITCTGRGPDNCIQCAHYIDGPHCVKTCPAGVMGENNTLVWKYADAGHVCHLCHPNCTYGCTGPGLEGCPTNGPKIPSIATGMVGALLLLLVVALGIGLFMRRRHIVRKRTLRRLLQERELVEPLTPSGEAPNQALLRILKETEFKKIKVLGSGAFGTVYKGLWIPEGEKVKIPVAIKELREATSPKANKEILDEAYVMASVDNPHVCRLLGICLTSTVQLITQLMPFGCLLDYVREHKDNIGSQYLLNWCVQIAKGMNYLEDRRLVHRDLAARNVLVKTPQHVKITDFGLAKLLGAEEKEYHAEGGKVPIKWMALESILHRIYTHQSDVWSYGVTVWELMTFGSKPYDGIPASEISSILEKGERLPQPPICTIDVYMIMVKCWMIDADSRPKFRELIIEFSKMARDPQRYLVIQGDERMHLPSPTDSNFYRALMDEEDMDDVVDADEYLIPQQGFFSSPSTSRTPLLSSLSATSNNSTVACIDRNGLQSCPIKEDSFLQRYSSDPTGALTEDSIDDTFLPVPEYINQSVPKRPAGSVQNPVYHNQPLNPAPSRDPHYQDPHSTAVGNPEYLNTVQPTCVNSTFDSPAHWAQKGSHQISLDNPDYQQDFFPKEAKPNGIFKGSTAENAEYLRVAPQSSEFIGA
# [29] = molecular target: JNK1 (h) (Homo sapiens, UniProt P45983); conditions: Enzymatic activity; 1.0E-05 M
# Chain of JNK1 (h) (P45983 whole entry): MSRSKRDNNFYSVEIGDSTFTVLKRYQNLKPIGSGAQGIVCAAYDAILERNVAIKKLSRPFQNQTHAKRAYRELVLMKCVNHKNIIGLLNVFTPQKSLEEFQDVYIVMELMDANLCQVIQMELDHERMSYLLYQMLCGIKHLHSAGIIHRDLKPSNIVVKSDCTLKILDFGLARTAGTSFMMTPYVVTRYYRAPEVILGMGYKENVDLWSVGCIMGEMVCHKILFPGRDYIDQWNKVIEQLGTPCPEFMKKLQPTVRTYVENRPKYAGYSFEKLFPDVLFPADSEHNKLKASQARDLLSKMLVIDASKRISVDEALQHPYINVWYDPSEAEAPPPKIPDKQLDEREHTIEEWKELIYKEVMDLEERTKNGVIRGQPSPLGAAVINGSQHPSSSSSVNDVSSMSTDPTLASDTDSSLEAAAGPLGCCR
# Chain of Oxytocin (h) (P30559 whole entry): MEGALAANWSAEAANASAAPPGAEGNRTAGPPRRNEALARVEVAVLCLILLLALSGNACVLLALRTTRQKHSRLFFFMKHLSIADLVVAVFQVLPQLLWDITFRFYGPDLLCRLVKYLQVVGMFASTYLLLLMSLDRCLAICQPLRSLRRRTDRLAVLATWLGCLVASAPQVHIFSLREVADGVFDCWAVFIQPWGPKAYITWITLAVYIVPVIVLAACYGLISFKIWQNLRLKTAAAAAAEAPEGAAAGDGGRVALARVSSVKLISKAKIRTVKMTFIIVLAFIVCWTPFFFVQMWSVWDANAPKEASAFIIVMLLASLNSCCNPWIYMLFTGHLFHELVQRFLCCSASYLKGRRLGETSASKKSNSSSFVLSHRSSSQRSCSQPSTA
smiles,measurement,setting,value
"Fc1nc(N2CCOCC2)ccc1-c1cc2ccccc2[nH]1 [Compound 75, 4-(6-Fluoro-5-(1H-indol-2-yl)pyridin-2-yl)morpholine]","% Inhibition, Specific binding",[1],25.3038%
same,"% Inhibition, Specific binding",[2],-4.91E+00%
same,"% Inhibition, Specific binding",[3],-1.90E-01%
same,inhibition at 10 µM,[4],-0.914%
same,"% Inhibition, Specific binding",[5],4.9424%
same,IC50,[6],3 µM
same,% Inhibition,[7],7.0556%
same,"% Inhibition, Specific binding",[8],-1.91E+01%
same,"% Inhibition, Specific binding",[9],3.943%
same,"% Inhibition, Specific binding",[10],21.7657%
same,"% Inhibition, Specific binding",[11],-8.72E+00%
same,inhibition at 10 µM,[12],-5.83%
same,"% Inhibition, Specific binding",[13],3.065%
same,"% Inhibition, Specific binding",[14],5.821%
same,inhibition at 10 µM,[15],-0.726%
same,inhibition at 10 µM,[16],-0.0362%
same,"% Inhibition, Specific binding",[17],-2.40E+01%
same,inhibition at 10 µM,[18],-5.9%
same,inhibition at 10 µM,[19],-3.1%
same,"% Inhibition, Specific binding",[20],-2.08E+01%
same,inhibition at 10 µM,[21],-8.86%
same,inhibition at 10 µM,[22],13.6%
same,"% Inhibition, Specific binding",[23],-1.20E+01%
same,inhibition at 10 µM,[24],-10.4%
same,"% Inhibition, Specific binding",[25],-8.25E+00%
same,"% Inhibition, Enzymatic activity",[26],-7.60E+00%
same,inhibition at 10 µM,[27],-78.7%
same,% Inhibition,[28],16.5474%
same,% Inhibition,[29],-3.56E-01%
